Columns and labels:
[1] = compound: COc1cccc(OCCCN)c1-c1cc(Nc2cnc(C#N)cn2)n[nH]1 [Prexasertib]; details: max 1 µM
In short: (§1)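 Viability was measured with CellTiter-Glo 2.0 luminescence after 72 hours of dosing at a final DMSO of typically 0.2%, and scaled between blank-well and DMSO-well means. Beforehand, cancer cell lines sat 24 hours at 37°C and 5% CO2 in 1536-well plates in 7.5 μl DMEM/F12 or RPMI with 10% FBS. A non-linear mixed effects model fitted two-parameter logistic curves to the dose responses. The single-agent IC50 comes from these fits.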

[2] = compound: C[C@@H](c1ccc2nccn2c1)n1nnc2ncc(-c3cnn(C)c3)nc21 [Savolitinib]; details: max 1 µM
In short: as §1

[3] = compound: COc1cc2ncnc(Nc3ccc(F)c(Cl)c3)c2cc1OCCCN1CCOCC1 [Gefitinib]; details: max 10 µM
In short: as §1

[4] = compound: NC1(c2ccc(-c3nc4ccn5c(=O)[nH]nc5c4cc3-c3ccccc3)cc2)CCC1 [MK-2206]; details: max 10 µM
In short: as §1

[5] = compound: Cc1cc2ncnn2cc1Nc1ncc2c(n1)n(C1CCOCC1)c(=O)n2C [AZD7648]; details: max 10 µM
In short: as §1

[6] = compound: CC1=C(C(=CC=C1)Cl)NC(=O)C2=CN=C(S2)NC3=CC(=NC(=N3)C)N4CCN(CC4)CCO [Dasatinib]; details: max 2 µM
In short: as §1

[7] = compound: COc1nnc2ccc(N3CCC(c4ccc(OCCN5CCN(C)C(=O)[C@H]5C)cc4)CC3)nn12 [AZD5153]; details: max 1 µM
In short: as §1

[8] = compound: C[C@@H](Nc1cc(F)cc(F)c1)c1cc(C(=O)N(C)C)cc2c(=O)cc(N3CCOCC3)oc12 [AZD8186]; details: max 10 µM
In short: as §1

[9] = compound: O=C(c1cc(Cc2n[nH]c(=O)c3ccccc23)ccc1F)N1CCN(C(=O)C2CC2)CC1 [Olaparib]; details: max 10 µM
In short: as §1

[10] = compound: CN(CC[C@H](CSC1=CC=CC=C1)NC2=C(C=C(C=C2)S(=O)(=O)NC(=O)C3=CC=C(C=C3)N4CCC(CC4)[C@H](C5=CC=CC=C5C6=CC=C(C=C6)Cl)O)S(=O)(=O)C(F)(F)F)CCO [AZD4320]; details: max 1 µM
In short: as §1

[11] = compound: CC(=O)c1c(C)c2cnc(Nc3ccc(N4CCNCC4)cn3)nc2n(C2CCCC2)c1=O [Palbociclib]; details: max 10 µM
In short: as §1

[12] = compound: CC(C)n1c(=O)n(C)c2cnc3cc(F)c(-c4ccc(OCCCN5CCCCC5)nc4)cc3c21 [AZD1390]; details: max 0.3 µM
In short: as §1

[13] = compound: C1CC(C1)(C(=O)[O-])C(=O)[O-].N.N.[Pt+2] [Carboplatin]; details: max 10 µM
In short: as §1

[14] = compound: CS(=O)(=O)CCNCc1ccc(-c2ccc3ncnc(Nc4ccc(OCc5cccc(F)c5)c(Cl)c4)c3c2)o1 [Lapatinib]; details: max 10 µM
In short: as §1

[15] = compound: Nc1ccn([C@@H]2O[C@H](CO)[C@@H](O)C2(F)F)c(=O)n1 [Gemcitabine]; details: max 0.3 µM
In short: as §1

[16] = compound: COc1cccc2c1C(=O)c1c(O)c3c(c(O)c1C2=O)C[C@@](O)(C(=O)CO)C[C@@H]3O[C@H]1C[C@H](N)[C@H](O)[C@H](C)O1 [Doxorubicin]; details: max 1 µM
In short: as §1

[17] = compound: CC(=O)O[C@H]1C(=O)[C@@]2(C)[C@H]([C@H](OC(=O)c3ccccc3)[C@]3(O)C[C@H](OC(=O)[C@H](O)[C@@H](NC(=O)c4ccccc4)c4ccccc4)C(C)=C1C3(C)C)[C@]1(OC(C)=O)CO[C@@H]1C[C@@H]2O [Paclitaxel]; details: max 3 µM
In short: as §1

[18] = compound: COc1cc(Nc2ncc3c(n2)-c2ccc(Cl)cc2C(c2c(F)cccc2OC)=NC3)ccc1C(=O)O [Alisertib]; details: max 10 µM
In short: as §1

[19] = compound: CN(C)CCCOc1ccc(-c2ccc3ncc4c(c3c2)n(C2CCOCC2)c(=O)n4C)cn1 [AZD0156]; details: max 3 µM
In short: as §1

[20] = compound: C1CN(CCC1(C(=O)N[C@@H](CCO)C2=CC=C(C=C2)Cl)N)C3=NC=NC4=C3C=CN4 [AZD5363]; details: max 10 µM
In short: as §1

[21] = compound: O=c1[nH]cc(F)c(=O)[nH]1 [5-Fluorouracil]; details: max 20 µM
In short: as §1

[22] = compound: C[C@@H]1COCCN1C2=NC(=NC(=C2)C3(CC3)[S@](=N)(=O)C)C4=C5C=CNC5=NC=C4 [AZD6738]; details: max 10 µM
In short: as §1

[23] = compound: CC(=O)Nc1cccc(-n2c(=O)n(C3CC3)c(=O)c3c(Nc4ccc(I)cc4F)n(C)c(=O)c(C)c32)c1 [Trametinib]; details: max 1 µM
In short: as §1

[24] = compound: Cc1nc(-c2cn3c(n2)-c2ccc(-c4cnn(C(C)(C)C(N)=O)c4)cc2OCC3)n(C(C)C)n1 [Taselisib]; details: max 10 µM
In short: as §1

[25] = compound: C=CCn1c(=O)c2cnc(Nc3ccc(N4CCN(C)CC4)cc3)nc2n1-c1cccc(C(C)(C)O)n1 [AZD1775]; details: max 3 µM
In short: as §1

[26] = compound: CCc1c2c(nc3ccc(O)cc13)-c1cc3c(c(=O)n1C2)COC(=O)[C@]3(O)CC [SN-38]; details: max 0.3 µM
In short: as §1

[27] = compound: N#Cc1cnc(Nc2cc(NC[C@H]3CNCCO3)c(C(F)(F)F)cn2)cn1 [SRA737]; details: max 10 µM
In short: as §1

[28] = compound: C[C@@H](Oc1cc(-c2cnn(C3CCNCC3)c2)cnc1N)c1c(Cl)ccc(F)c1Cl [Crizotinib]; details: max 10 µM
In short: as §1

[29] = compound: O=C(Nc1ccc2[nH]nc(-c3ccncc3)c2c1)[C@@H]1CCN(CC(=O)N2CCN(c3ccc(-c4ncccn4)cc3)CC2)C1; details: max 5 µM
In short: as §1

[30] = compound: CC1(C)CCC(CN2CCN(c3ccc(C(=O)NS(=O)(=O)c4ccc(NCC5CCOCC5)c([N+](=O)[O-])c4)c(Oc4cnc5[nH]ccc5c4)c3)CC2)=C(c2ccc(Cl)cc2)C1 [Venetoclax]; details: max 1 µM
In short: as §1

[31] = compound: Cn1cnc2c(F)c(Nc3ccc(Br)cc3Cl)c(C(=O)NOCCO)cc21 [Selumetinib]; details: max 10 µM
In short: as §1

[32] = compound: CCN(CCO)CCCOc1ccc2c(Nc3cc(CC(=O)Nc4cccc(F)c4)[nH]n3)ncnc2c1 [AZD2811]; details: max 1 µM
In short: as §1

[33] = compound: CC1=CN2[C@@H](C1)C=NC3=CC(=C(C=C3C2=O)OC)OCCCCCOC4=C(C=C5C(=C4)N=C[C@@H]6CC(=CN6C5=O)C)OC [SG3199]; details: max 0.001 µM
In short: as §1

[34] = compound: Cc1c2c(nn1C)CSCc1cc(n(C)n1)CSc1cc(c3ccccc3c1)OCCCc1c(C(=O)O)n(C)c3c-2c(Cl)ccc13 [AZD5991]; details: max 1 µM
In short: as §1

[35] = compound: COc1cc([C@@H]2c3cc4c(cc3[C@@H](O[C@@H]3O[C@@H]5CO[C@@H](C)O[C@H]5[C@H](O)[C@H]3O)[C@H]3COC(=O)[C@H]23)OCO4)cc(OC)c1O [Etoposide]; details: max 10 µM
In short: as §1

| Cell Line | IC50, cell viability 72 h [1] [nM] | IC50, cell viability 72 h [2] [nM] | IC50, cell viability 72 h [3] [nM] | IC50, cell viability 72 h [4] [nM] | IC50, cell viability 72 h [5] [nM] | IC50, cell viability 72 h [6] [nM] | IC50, cell viability 72 h [7] [nM] | IC50, cell viability 72 h [8] [nM] | IC50, cell viability 72 h [9] [nM] | IC50, cell viability 72 h [10] [nM] | IC50, cell viability 72 h [11] [nM] | IC50, cell viability 72 h [12] [nM] | IC50, cell viability 72 h [13] [nM] | IC50, cell viability 72 h [14] [nM] | IC50, cell viability 72 h [15] [nM] | IC50, cell viability 72 h [16] [nM] | IC50, cell viability 72 h [17] [nM] | IC50, cell viability 72 h [18] [nM] | IC50, cell viability 72 h [19] [nM] | IC50, cell viability 72 h [20] [nM] | IC50, cell viability 72 h [21] [nM] | IC50, cell viability 72 h [22] [nM] | IC50, cell viability 72 h [23] [nM] | IC50, cell viability 72 h [24] [nM] | IC50, cell viability 72 h [25] [nM] | IC50, cell viability 72 h [26] [nM] | IC50, cell viability 72 h [27] [nM] | IC50, cell viability 72 h [28] [nM] | IC50, cell viability 72 h [29] [nM] | IC50, cell viability 72 h [30] [nM] | IC50, cell viability 72 h [31] [nM] | IC50, cell viability 72 h [32] [nM] | IC50, cell viability 72 h [33] [nM] | IC50, cell viability 72 h [34] [nM] | IC50, cell viability 72 h [35] [nM] |
| --- | --- | --- | --- | --- | --- | --- | --- | --- | --- | --- | --- | --- | --- | --- | --- | --- | --- | --- | --- | --- | --- | --- | --- | --- | --- | --- | --- | --- | --- | --- | --- | --- | --- | --- | --- |
| NAMALWA (Burkitt's Lymphoma) | 10.5 | > 1000 | > 10000 | 8200 | > 10000 | > 2000 | 43.1 | 7520 | > 10000 | > 1000 | 9880 | > 300 | > 10000 | > 10000 | 6.04 | 41.4 | 4.84 | 689 | > 3000 | 9010 | 14500 | 1140 | > 1000 | 2020 | 300 | 2.63 | 1670 | 2320 | > 5000 | > 1000 | > 10000 | > 1000 | > 1 | 61.1 | 272 |
| NCI-H226 (Mesothelioma) | > 1000 | > 1000 | > 10000 | > 10000 | > 10000 | > 2000 | > 1000 | > 10000 | > 10000 | > 1000 | > 10000 | > 300 | > 10000 | > 10000 | > 300 | > 1000 | > 3000 | > 10000 | > 3000 | > 10000 | > 20000 | > 10000 | > 1000 | > 10000 | > 3000 | > 300 | > 10000 | > 10000 | > 5000 | > 1000 | > 10000 | > 1000 | > 1 | > 1000 | > 10000 |
| NCI-H3118 (Head and Neck Carcinoma) | 39.3 | > 1000 | 1970 | > 10000 | > 10000 | 309 | 684 | > 10000 | > 10000 | > 1000 | > 10000 | > 300 | > 10000 | 4490 | 64.1 | > 1000 | 15 | > 10000 | > 3000 | > 10000 | > 20000 | > 10000 | 120 | 1060 | 191 | 277 | > 10000 | > 10000 | 912 | > 1000 | 3090 | > 1000 | > 1 | > 1000 | 5670 |
| RCC-JW (Kidney Carcinoma) | > 1000 | > 1000 | > 10000 | > 10000 | > 10000 | 85.1 | > 1000 | 5130 | > 10000 | 895 | > 10000 | > 300 | > 10000 | 7530 | 61.7 | > 1000 | 109 | > 10000 | > 3000 | > 10000 | > 20000 | > 10000 | > 1000 | > 10000 | 1600 | 157 | > 10000 | > 10000 | > 5000 | > 1000 | > 10000 | > 1000 | > 1 | > 1000 | > 10000 |
| SCC-4 (Oral Cavity Carcinoma) | 154 | > 1000 | > 10000 | > 10000 | > 10000 | > 2000 | > 1000 | > 10000 | > 10000 | > 1000 | > 10000 | > 300 | > 10000 | > 10000 | 272 | > 1000 | 11.5 | 9220 | > 3000 | > 10000 | > 20000 | 9010 | > 1000 | 1940 | > 3000 | 53 | > 10000 | > 10000 | > 5000 | > 1000 | > 10000 | > 1000 | > 1 | > 1000 | > 10000 |

From the supplement of paper PMC11061612
